Data: patent publication US8673890B2, “2,3-dihydro-1H-isoindol-1-imine derivatives useful as thrombin PAR-1 receptor antagonist” (Janssen Pharmaceutica NV, priority 2009, dated 2014)
pIC50: −log10 of the molar value. Values joined by “and” are separate entries in the source; they are usually repeats but may differ in a detail not shown here. Identical values can stand only once.

Legend:
[1] = target: T1, thrombin receptor (PAR-1) (Homo sapiens, UniProt P25116); experiment: FLIPR-based calcium-flux assay with human smooth muscle cells (Har peptide agonist); format: cell-based; settings: HSMC; 30 nM Har (PAR1) peptide agonist; 80-min drug incubation; multiple values = individual measurements
T1 construct: Human aortic smooth muscle cells (HSMC) were purchased from Cascade Biologics; host or cells: human aortic smooth muscle cells (HSMC)
T1 sequence (P25116 22-425): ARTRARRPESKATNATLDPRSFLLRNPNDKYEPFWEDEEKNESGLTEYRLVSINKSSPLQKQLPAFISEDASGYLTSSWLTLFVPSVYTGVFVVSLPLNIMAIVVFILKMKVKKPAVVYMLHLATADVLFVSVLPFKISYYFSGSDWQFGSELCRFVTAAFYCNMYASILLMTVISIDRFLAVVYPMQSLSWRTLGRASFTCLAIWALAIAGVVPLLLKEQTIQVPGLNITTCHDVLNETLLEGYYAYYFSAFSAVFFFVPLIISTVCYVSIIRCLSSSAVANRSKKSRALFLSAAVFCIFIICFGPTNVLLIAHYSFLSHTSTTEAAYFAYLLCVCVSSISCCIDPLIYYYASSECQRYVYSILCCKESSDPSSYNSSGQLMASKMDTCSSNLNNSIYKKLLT
Experimental: Human aortic smooth muscle cells (HSMC) were purchased from Cascade Biologics (Portland, Oreg.) and cultured in M-231 containing smooth muscle cell growth supplement and 1× Antibiotic-Antimycotic.
To determine agonist concentration for compound testing: On the day prior to the assay, 100 μL of cells (2×10^5/mL) were seeded in clear, flat-bottom black-wall, tissue culture treated polystyrene 96-well plates and incubated at 37° C., 5% CO2. On the day of the assay, 50 μL of complete dye loading solution (FLIPR Calcium 3 Kit, Molecular Devices) was added to each well containing 100 μL of culture media. The cells were incubated for 30-45 min at 37° C., in 5% CO2 before initiating the assay on the FLIPR. The agonist effect of PAR1 peptide (S-(p-F-Phe)-Har-L-Har-KY-NH2; Har=homoarginine; referred to herein as “Har” peptide) was tested and the EC50 was determined. The EC60-70 dose was used (30 nM) for compound testing.
Compound testing: On the day prior to the assay, 90 μL of cells (2.2×10^5/mL) were seeded in clear, flat-bottom black-wall, tissue culture treated polystyrene 96-well plates and incubated at 37° C., 5% CO2. On the day of the assay, the test compounds were prepared at 10× in 3% DMSO Hanks buffer and 10 μL was added to each well (final DMSO concentration of 0.3%). The cells were incubated 20 min at 37° C., 5% CO2. Culture medium containing testing compounds was dumped and the cells were washed four times with DPBS containing 0.1% of BSA and re-fed with 80 μL of growth medium. 70 μL of BD (fluorescent) dye was loaded to the cells and incubated 45 min at 37° C. incubator. The plates were equilibrated to room temperature for 15 min. 4× PAR1 peptide (30 nM final concentration) agonist plate and the cell plate were placed in FLIPR's assay chamber. 50 μL agonist was added to the cells and data was recorded for 5 min. Raw fluorescence data was exported for each well and tabulated versus time within an ASCII file. Data was then imported into Excel® and the peak response over basal level was determined. The percent inhibition for each test compound was calculated by the changes of fluorescent density as a % inhibition of the control Har peptide response to obtain an IC50.
Representative compounds of the present invention were tested according to the procedure described in Biological Example 1 above, with results in Table 8 below. In Table 8 below, where multiple values are listed for a particular compound, said numbers represent individual measurements (tests) for said compound.

[2] = system: platelets in platelet-rich plasma; experiment: Har peptide-induced platelet aggregation in platelet-rich plasma; format: cell-based, human; settings: multiple values = individual measurements
Experimental: (§1) The procedure for this assay is similar to that described in Biological Example 2, above. Briefly, platelet aggregation studies were performed according to the method of Bednar et al. (Bednar, B., Condra, C., Gould, R. J., and Connolly, T. M., Thromb. Res., 77:453-463 (1995)). Platelet-rich plasma (PRP) concentrates prepared from healthy volunteers who were aspirin free for at least 7 days by venipuncture using EDTA as anticoagulant was purchased from Biological Specialties, Inc. (Colmar, Pa.). PPP (platelet-poor-plasma) was obtained by centrifugation of PRP at Max (3,000 rpms) for 15 min at room temperature. PRP was diluted to yield platelet count of 300×10^3 platelets/μL with PPP. For thrombin induced platelet aggregation: 118 μL of 500 mM GPRP-NH2 was added to 12 mL of 300×10^3 platelets before using (to clean the fibrinogen in the plasma.) GPRP was added just before the experiment. 15 μL of test compound solutions were added to 120 μL of platelets 5 min prior the agonist additions. Platelet aggregation was initiated by the addition of agonist shown to achieve 60-70% aggregation. Antagonist potency was estimated as a % inhibition of the control Har peptide or thrombin response to obtain an IC50.
(§2) Where multiple values are listed for a particular compound, said numbers represent individual measurements (tests) for said compound.

[3] = system: platelets in platelet-rich plasma; experiment: Thrombin-induced platelet aggregation in platelet-rich plasma; format: cell-based, human; settings: for pIC50: multiple values = individual measurements; for inhibition at 10 µM: 10 μM compound
Experimental: as §1, §2

IC50 [1] | pIC50 ([2]; Homo sapiens, Platelet) | pIC50 [2] | pIC50 ([3]; Homo sapiens, Platelet) | pIC50 [3] | SMILES | inhibition at 10 µM ([3]; Homo sapiens) [%]
0.032 µM |  |  |  |  | CC(C)(C)c1cc(C(=O)CN2Cc3cc4c(cc3C2=N)OCCCCO4)cc(C(C)(C)C)c1O [Compound 5] | 
0.022 µM and 0.027 µM | 5.79 |  | 5.72 |  | CC(C)(C)c1cc(C(=O)CN2Cc3cc4c(cc3C2=N)OC/C=C\CO4)cc(C(C)(C)C)c1O [Compound 100, (Z)-1-(3,5-di-tert-butyl-4-hydroxyphenyl)-2-(8-imino-2H-[1,4]-dioxocino[2,3-f]isoindol-9(5H,8H,10H)-yl)ethanone] | 
0.092 µM and 0.22 µM | < 5.00 |  |  |  | Cc1cc2c(cc1C)COc1cc3c(cc1OC2)CN(CC(=O)c1cc(C(C)(C)C)c(O)c(C(C)(C)C)c1)C3=N [Compound 99] | 23
> 3 µM |  |  |  |  | CN1CCN(CCC2COc3cc4c(cc3OC2)C(=N)N(CC(=O)c2cc(C(C)(C)C)c(O)c(C(C)(C)C)c2)C4)CC1 (stereo not drawn) [Compound 15] | 
> 3 µM |  |  |  |  | CC(C)(C)c1cc(C(=O)CN2Cc3cc4c(cc3C2=N)OCC(CCN2CCCC2)CO4)cc(C(C)(C)C)c1O (stereo not drawn) [Compound 13] | 
0.043 µM and 0.02 µM | 5.13 | < 5.00 | < 5.00 | < 5.00 | CC(C)(C)c1cc(C(=O)CN2Cc3cc4c(cc3C2=N)OCc2c(F)ccc(F)c2CO4)cc(C(C)(C)C)c1O [Compound 87] | 
0.044 µM and 0.053 µM |  |  |  |  | CC(C)(C)c1cc(C(=O)CN2Cc3cc4c(cc3C2=N)OCc2cccnc2CO4)cc(C(C)(C)C)c1O [Compound 48] | 
> 1 µM |  |  |  |  | CN(C)CCC1COc2cc3c(cc2OC1)C(=N)N(CC(=O)c1cc(C(C)(C)C)c(O)c(C(C)(C)C)c1)C3 (stereo not drawn) [Compound 16, 1-(3,5-di-tert-butyl-4-hydroxyphenyl)-2-(3-(2-(dimethylamino)ethyl)-7-imino-3,4-dihydro-[1,4]dioxepino[2,3-f]isoindol-8(2H,7H,9H)-yl)ethanone] | 
0.16 µM |  |  |  |  | CC1(C)COc2cc3c(cc2OC1)C(=N)N(CC(=O)c1cc(C(C)(C)C)c(O)c(C(C)(C)C)c1)C3 [Compound 9] | 
0.13 µM and 0.068 µM |  |  |  |  | CC(C)(C)c1cc(C(=O)CN2Cc3cc4c(cc3C2=N)OCCCO4)cc(C(C)(C)C)c1O [Compound 4, 1-(3,5-di-tert-butyl-4-hydroxyphenyl)-2-(7-imino-3,4-dihydro-[1,4]dioxepino[2,3-f]isoindol-8(2H,7H,9H)-yl)ethanone] | 
> 3 µM |  |  |  |  | CNCCC1COc2cc3c(cc2OC1)C(=N)N(CC(=O)c1cc(C(C)(C)C)c(O)c(C(C)(C)C)c1)C3 (stereo not drawn) [Compound 37] | 
0.78 µM |  |  |  |  | CC(C)(C)c1cc(C(=O)CN2Cc3cc4c(cc3C2=N)OCC(CC=O)CO4)cc(C(C)(C)C)c1O (stereo not drawn) [Compound 14, 2-(8-(2-(3,5-di-tert-butyl-4-hydroxyphenyl)-2-oxoethyl)-7-imino-2,3,4,7,8,9-hexahydro-[1,4]dioxepino[2,3-f]isoindol-3-yl)acetaldehyde] | 
0.551 µM |  |  |  |  | CC(C)(C)c1cc(C(=O)CN2Cc3cc4c(cc3C2=N)OCC(CCN2CCOCC2)CO4)cc(C(C)(C)C)c1O (stereo not drawn) [Compound 12] | 

Second part, the compound before the results:

SMILES | IC50 [1] | pIC50 ([2]; Homo sapiens, Platelet) | pIC50 [2] | pIC50 ([3]; Homo sapiens, Platelet) | pIC50 [3] | inhibition at 10 µM ([3]; Homo sapiens) [%]
COc1c(N2CCN(C)CC2)cc(C(=O)CN2Cc3cc4c(cc3C2=N)OCc2cccnc2CO4)cc1C(C)(C)C [Compound 71] | 0.064 µM and 0.044 µM | 6.54 | 6.32 | 6.42 |  | 
COc1c(N2CCOCC2)cc(C(=O)CN2Cc3cc4c(cc3C2=N)OCc2ccccc2CO4)cc1C(C)(C)C [Compound 46] | 0.094 µM and 0.1 µM | 5.74 | 5.98 | 5.33 |  | 34
COc1c(N2CCOCC2)cc(C(=O)CN2Cc3cc4c(cc3C2=N)OCC(F)(F)C(F)(F)CO4)cc1C(C)(C)C [Compound 90, 1-(3-tert-butyl-4-methoxy-5-morpholinophenyl)-2-(3,3,4,4-tetrafluoro-8-imino-4,5-dihydro-2H-[1,4]-dioxocino[2,3-f]isoindol-9(3H,8H,10H)-yl)ethanone] | 0.68 µM and 0.2 µM and 0.57 µM | 5.59 | 5.35 | < 5.00 |  | 30
COc1c(N2CCOCC2)cc(C(=O)CN2Cc3cc4c(cc3C2=N)OCc2cc(F)c(F)cc2CO4)cc1C(C)(C)C [Compound 89] | 0.29 µM and 0.13 µM | 5.89 | 5.64 | 5.31 | 5.34 and 5.22 | 
COc1c(N2CCOCC2)cc(C(=O)CN2Cc3cc4c(cc3C2=N)OCCNCCO4)cc1C(C)(C)C [Compound 42, 1-(3-tert-butyl-4-methoxy-5-morpholinophenyl)-2-(9-imino-3,4,5,6-tetrahydro-[1,4,7]dioxazonino[2,3-f]isoindol-10(2H,9H,11H)-yl)ethanone] | 0.66 µM and > 1 µM and 1.3 µM |  |  |  |  | 
COC(=O)c1ccc2c(c1)COc1cc3c(cc1OC2)CN(CC(=O)c1cc(C(C)(C)C)c(O)c(C(C)(C)C)c1)C3=N [Compound 55] |  |  | 5.61 and < 5.00 and 4.95 | < 5.00 | < 5.00 | 
COC(=O)c1ccc2c(c1)COc1cc3c(cc1OC2)C(=N)N(CC(=O)c1cc(C(C)(C)C)c(O)c(C(C)(C)C)c1)C3 [Compound 80] | 0.073 µM and 0.16 µM | < 5.00 | 4.88 | < 5.00 | < 5.00 | 
CC(C)(C)c1cc(C(=O)CN2Cc3cc4c(cc3C2=N)OCc2cc(C(=O)O)ccc2CO4)cc(C(C)(C)C)c1O [Compound 72] | 0.25 µM and 0.14 µM | < 5.00 | < 5.00 | < 5.00 |  | 
CC(C)(C)c1cc(C(=O)CN2Cc3cc4c(cc3C2=N)OCc2cc([N+](=O)[O-])ccc2CO4)cc(C(C)(C)C)c1O [Compound 84] | 0.029 µM and 0.047 µM and 0.048 µM and 0.011 µM | 5.61 |  | 5.60 |  | 
COc1c(Br)cc(C(=O)CN2Cc3cc4c(cc3C2=N)OCc2ncccc2CO4)cc1C(C)(C)C [Compound 54] | 1.1 µM and > 3 µM and 0.75 µM |  |  |  |  | 
COC(=O)c1cc2c(cc1C(=O)OC)COc1cc3c(cc1OC2)CN(CC(=O)c1cc(C(C)(C)C)c(O)c(C(C)(C)C)c1)C3=N [Compound 102] | 0.35 µM |  |  |  |  | 
COC(=O)c1cc2c(cc1C(=O)OC)COc1cc3c(cc1OC2)CN(CC(=O)c1cc(N2CCOCC2)c(OC)c(C(C)(C)C)c1)C3=N [Compound 103] | 1.1 µM |  |  |  |  | 
COc1c(N2CCOCC2)cc(C(=O)CN2Cc3cc4c(cc3C2=N)OCC(CC2NCCS2)CO4)cc1C(C)(C)C (stereo not drawn) [Compound 44] | 0.1 µM and 0.12 µM |  |  |  |  | 
COc1c(N2CCOCC2)cc(C(=O)CN2Cc3cc4c(cc3C2=N)OCCN(C(=O)OC(C)(C)C)CCO4)cc1C(C)(C)C [Compound 41, tert-butyl 10-(2-(3-tert-butyl-4-methoxy-5-morpholinophenyl)-2-oxoethyl)-9-imino-2,3,5,6,10,11-hexahydro-[1,4,7]dioxazonino[2,3-f]isoindole-4(9H)-carboxylate] | 0.54 µM and > 1 µM and 1.2 µM |  |  |  |  | 
COc1c(N2CCOCC2)cc(C(=O)CN2Cc3cc4c(cc3C2=N)OCC(CCN2CCOCC2)CO4)cc1C(C)(C)C (stereo not drawn) [Compound 43] | 0.45 µM and 0.68 µM |  |  |  |  | 
COc1c(N2CCOCC2)cc(C(=O)CN2Cc3cc4c(cc3C2=N)OCC(CCN2CCSC2)CO4)cc1C(C)(C)C (stereo not drawn) [Compound 45] | 0.15 µM and 0.18 µM |  |  |  |  | 
